Experimental data as given in ChEMBL document CHEMBL3046466 (Med Chem Res, 2012).

Biological target: Voltage-dependent L-type calcium channel subunit alpha-1C (Cavia porcellus, UniProt O35505)
Assay: Inhibition of Calcium channel in Cavia porcellus albino (guinea pig) ileocecal SMC assessed as inhibition of 80 mM KCl-induced contraction
Conditions: for IC30: guinea pig

Chain of Voltage-dependent L-type calcium channel subunit alpha-1C (O35505 whole entry): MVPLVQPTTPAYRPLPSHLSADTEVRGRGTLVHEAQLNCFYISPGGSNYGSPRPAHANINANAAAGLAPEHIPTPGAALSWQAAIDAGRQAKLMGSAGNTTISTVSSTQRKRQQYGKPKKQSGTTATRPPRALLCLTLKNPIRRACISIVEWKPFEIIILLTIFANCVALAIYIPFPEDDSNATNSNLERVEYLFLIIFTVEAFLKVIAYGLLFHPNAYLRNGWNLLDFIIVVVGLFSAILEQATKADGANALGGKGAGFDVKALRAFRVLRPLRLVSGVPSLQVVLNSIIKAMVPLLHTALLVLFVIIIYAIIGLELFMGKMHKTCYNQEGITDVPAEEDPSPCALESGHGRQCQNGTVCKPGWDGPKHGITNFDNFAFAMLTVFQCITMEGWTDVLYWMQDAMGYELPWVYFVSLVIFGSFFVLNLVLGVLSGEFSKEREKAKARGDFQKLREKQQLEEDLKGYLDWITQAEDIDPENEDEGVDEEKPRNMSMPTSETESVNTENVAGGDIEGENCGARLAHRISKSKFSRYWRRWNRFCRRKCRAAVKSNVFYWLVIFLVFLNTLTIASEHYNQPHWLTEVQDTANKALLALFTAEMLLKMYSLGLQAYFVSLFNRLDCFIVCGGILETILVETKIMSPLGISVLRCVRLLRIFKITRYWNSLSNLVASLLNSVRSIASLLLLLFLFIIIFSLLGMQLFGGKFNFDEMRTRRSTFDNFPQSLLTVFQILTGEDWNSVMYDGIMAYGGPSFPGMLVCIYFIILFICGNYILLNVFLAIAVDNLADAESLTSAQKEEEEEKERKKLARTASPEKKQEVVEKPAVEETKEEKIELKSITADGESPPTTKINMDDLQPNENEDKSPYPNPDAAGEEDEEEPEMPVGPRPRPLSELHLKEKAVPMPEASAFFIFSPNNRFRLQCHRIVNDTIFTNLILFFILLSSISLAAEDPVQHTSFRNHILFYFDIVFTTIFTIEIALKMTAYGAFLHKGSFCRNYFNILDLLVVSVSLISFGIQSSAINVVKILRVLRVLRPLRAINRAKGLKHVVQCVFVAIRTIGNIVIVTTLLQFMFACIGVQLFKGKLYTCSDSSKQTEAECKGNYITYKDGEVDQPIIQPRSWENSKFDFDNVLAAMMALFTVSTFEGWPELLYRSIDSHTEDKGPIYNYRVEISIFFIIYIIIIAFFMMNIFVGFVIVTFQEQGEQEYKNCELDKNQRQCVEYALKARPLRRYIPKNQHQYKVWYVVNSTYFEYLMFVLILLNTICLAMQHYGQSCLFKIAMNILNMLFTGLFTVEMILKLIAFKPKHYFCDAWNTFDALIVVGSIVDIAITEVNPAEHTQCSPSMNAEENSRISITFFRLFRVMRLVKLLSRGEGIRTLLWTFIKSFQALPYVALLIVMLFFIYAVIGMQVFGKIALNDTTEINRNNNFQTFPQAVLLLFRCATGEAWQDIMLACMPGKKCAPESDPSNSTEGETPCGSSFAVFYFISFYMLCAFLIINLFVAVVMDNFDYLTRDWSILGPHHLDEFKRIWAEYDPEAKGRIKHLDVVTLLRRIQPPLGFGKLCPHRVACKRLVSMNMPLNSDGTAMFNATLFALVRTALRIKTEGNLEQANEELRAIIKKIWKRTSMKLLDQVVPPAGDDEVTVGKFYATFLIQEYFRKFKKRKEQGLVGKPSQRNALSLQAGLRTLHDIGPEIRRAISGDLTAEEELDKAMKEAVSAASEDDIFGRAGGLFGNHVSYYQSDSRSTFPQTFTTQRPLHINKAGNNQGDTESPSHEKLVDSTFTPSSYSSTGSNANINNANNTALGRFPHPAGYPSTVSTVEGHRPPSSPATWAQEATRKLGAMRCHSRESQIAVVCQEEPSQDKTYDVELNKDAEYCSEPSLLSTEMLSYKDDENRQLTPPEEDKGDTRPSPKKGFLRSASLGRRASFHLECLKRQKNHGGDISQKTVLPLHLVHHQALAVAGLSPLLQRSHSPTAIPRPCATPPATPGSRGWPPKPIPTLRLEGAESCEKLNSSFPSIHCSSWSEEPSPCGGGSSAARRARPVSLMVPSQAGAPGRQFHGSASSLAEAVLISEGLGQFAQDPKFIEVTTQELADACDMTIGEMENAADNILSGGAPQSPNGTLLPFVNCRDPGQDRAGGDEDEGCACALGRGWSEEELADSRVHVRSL

SMILES | IC50 [µM] | IC30
CCOC(=O)C1=C(C)NC(C)=C(C(=O)OC)C1c1cc(=O)cc(-c2ccccc2)o1 (stereo unspecified) | 2.03 | 7.18 ×10⁻⁷ M
CCOC(=O)C1=C(C)NC(C)=C(C(=O)OC)C1c1cc(=O)cc(C)o1 (stereo unspecified) | 1.63 | 5.38 ×10⁻⁷ M
CCOC(=O)C1=C(C)NC(C)=C(C(=O)OCC)C1c1cc(=O)cc(C)o1 | 35.9 | 1.45 ×10⁻⁶ M
COC(=O)C1=C(C)NC(C)=C(C(=O)OC)C1c1ccc(-c2cc(=O)cc(C)o2)cc1 | 17.8 | 3.67 ×10⁻⁶ M
CCOC(=O)C1=C(C)NC(C)=C(C(=O)OC)C1c1ccc(-c2cc(=O)cc(-c3ccccc3)o2)cc1 (stereo unspecified) | 94.4 | 4.62 ×10⁻⁶ M
CCOC(=O)C1=C(C)NC(C)=C(C(=O)OC)C1c1ccc(-c2cc(=O)cc(C)o2)cc1 (stereo unspecified) | 86.1 | 4.62 ×10⁻⁶ M
COC(=O)C1=C(C)NC(C)=C(C(=O)OC)C1c1ccccc1[N+](=O)[O-] [NIFEDIPINE] | – | 1.6 ×10⁻⁸ M
CCOC(=O)C1=C(C)NC(C)=C(C(=O)OCC)C1c1ccc(-c2cc(=O)cc(C)o2)cc1 | 2.14 | 7.2 ×10⁻⁷ M
CCOC(=O)C1=C(C)NC(C)=C(C(=O)OCC)C1c1ccc(-c2cc(=O)cc(-c3ccccc3)o2)cc1 | 12.2 | 6.12 ×10⁻⁶ M
CCOC(=O)C1=C(C)NC(C)=C(C(=O)OCC)C1c1cc(=O)cc(-c2ccccc2)o1 | 3.24 | 1.01 ×10⁻⁶ M
COC(=O)C1=C(C)NC(C)=C(C(=O)OC)C1c1ccc(-c2cc(=O)cc(-c3ccccc3)o2)cc1 | 4.71 | 1.26 ×10⁻⁶ M
